Results on 1 compound are retold here after patent US9668960B2, “Methods useful in studying or modulating skin or hair pigmentation, plant extracts for use in compositions and cosmetic care method” (L V M H RECHERCHE, priority 2008, dated 2017).

For this test, the system named is Myo-X. Nature of the test: Myo-X expression by double immunolabelling in normal human melanocytes. The class given is cell-based. As to the method: Immunofluorescence staining: For EM:KC co-culture studies fully matched melanocytes (p4) and keratinocytes (p2) were seeded onto 8-well Lab-Tek® chamber slides at a cell density of 1×10^4 cells/well and in a ratio of 1 melanocyte to 10 keratinocytes. Co-cultures were maintained overnight (16 h) in a mixture of full K-SFM and MEM (co-culture medium) to allow cell attachment, followed by medium replenishment for a further 24 h. Cells were then fixed in ice-cold methanol for 10 min at −20° C., washed in PBS and then blocked with 10% donkey serum for the detection of protein expression in filopodia.
For double labelling experiments the first primary antibody, Myo-X (1:100) (Santa Cruz, Calif., USA) was applied overnight at 4° C., followed by incubation with FITC-conjugated secondary antibody (1:100) for 1 h at room temperature. The second primary antibody, either cytokeratin (1:100) (Abeam, Cambridge, UK) or β-Actin (1:100) (Santa Cruz, USA) or Fascin (1:100) (Santa Cruz, USA) or NKi/beteb (1:30) (Monosan) was applied for 1 h at room temperature followed by a TRITC-conjugated secondary antibody (1:100) (Jackson Immunoresearch Laboratories, Inc., West Grove, USA). DAPI (Vector Laboratories, Burlingame, Calif.) was used to stain nuclei. Images were captured with a cooled Hamamatsu digital camera using a 100× objective and post-processed using Paint Shop Pro (Jasc Software Ver. 7. CA, USA). Negative controls included the omission of primary antibody and replacement with non-immune serum from secondary antibody host and inclusion of secondary antibodies.
Myo-X was also detected in EM filopodia.

As for `CC(C)Cn1c(=O)n(C)c(=O)c2[nH]cnc21` [IBMX], where the note is “compared with untreated cells”, the “Myo-X expression in EM (immunolabelling, words)” value is “increased the expression of Myo-X” and the “Myo-X localization in EM filopodia” value was “enhanced Myo-X localization in EM filopodia”. The “overall number of filopodia” value (total number of yellow spots beyond EM dendritic tips) is reported as “increased”.
